Experimental data reported in article PMC5209718, “Piscidin-1-analogs with double L- and D-lysine residues exhibited different conformations in lipopolysaccharide but comparable anti-endotoxin activities” (Scientific Reports, 2017).
Values after ≈ are worked out from the molar mass of the structure shown. Residues, ends and D or L forms follow the SMILES beside them.

Experiments:
[1] = system: Staphylococcus aureus (ATCC 29213); experiment: microbe, parasite or virus in culture; assay type: cell-based; details: ATCC 29213
From the text: (§1) Piscidin-1 and its analogs were examined for bacterial growth-inhibiting activity in liquid cultures against Gram-positive bacteria including MRSA strains and Gram-negative bacteria (Table 2). […] The therapeutic index is a parameter that signify the specificity or selectivity of antimicrobial agents towards microorganisms over mammalian cells.
(§2) Antibacterial assays with all the peptides were done in 96-well microtiter plates against different Gram-positive, Gram-negative and resistant bacteria as described earlier.

[2] = system: K. pneumoniae (ATCC 27736); experiment: microbe, parasite or virus in culture; assay type: cell-based; details: ATCC 27736
From the text: as §1, §2

[3] = system: P. aeruginosa (ATCC BAA-427); experiment: microbe, parasite or virus in culture; assay type: cell-based; details: ATCC BAA-427
From the text: as §1, §2

B. subtilis (ATCC 6633) = experiment: microbe, parasite or virus in culture; assay type: cell-based; details: ATCC 6633
From the text: as §1, §2

[4] = system: Staphylococcus aureus (ATCC 25923); experiment: microbe, parasite or virus in culture; assay type: cell-based; details: ATCC 25923
From the text: as §1, §2

[5] = system: Staphylococcus aureus (ATCC 700698 MRSA); experiment: microbe, parasite or virus in culture; details: ATCC 700698
From the text: as §1, §2

[6] = system: Staphylococcus aureus (ATCC BAA-44 MRSA); experiment: microbe, parasite or virus in culture; details: ATCC BAA-44
From the text: as §1, §2

[7] = system: Staphylococcus aureus (ATCC 1708 MRSA); experiment: microbe, parasite or virus in culture; details: ATCC 1708
From the text: as §1, §2

[8] = system: Staphylococcus aureus (ATCC 33592 Gentamycin Resistant); experiment: microbe, parasite or virus in culture; details: ATCC 33592
From the text: as §1, §2

[9] = system: Staphylococcus aureus (ATCC 700699 MRSA); experiment: microbe, parasite or virus in culture; details: ATCC 700699
From the text: as §1, §2

[10] = 1.0 mg/kg, no LPS; BALB/c mice; data not shown
E. coli (ATCC 25922) = experiment: Antibacterial activity (MIC), liquid culture in 96-well microtiter plates; assay type: cell-based; details: means of three independent experiments each in duplicate ± SD, read-out: Minimum inhibitory conc. (MIC) against bacteria 11
From the text: as §1, §2

[11] = system: human red blood cells (hRBCs); assay type: cell-based
From the text: Cytotoxic activity of piscidin-1 and its designed analogs was examined by assaying the lysis of human red blood cells (hRBCs) and the viability of murine 3T3 cells in presence of these peptides. […] Introduction of D-lysine (dK)residues instead of threonine residues at 15th & 21st positions further reduced the haemolytic activity of piscidin-1 (Fig. 1A). Overall, haemolytic activity of these peptides against hRBCs followed the order piscidin-1 > T15K-piscidin-1 > T15dK-piscidin-1 > T15,21K-piscidin-1 > T15,21dK-piscidin-1. Viability of 3T3 cells as determined by MTT assay in the presence of these peptides followed the same trend as their haemolytic activity (Fig. 1B).
Haemolytic activity of the peptides against human red blood cells in PBS was performed by assaying the ability of the peptides to lyse the hRBCs[24][48]. For this purpose, fresh human red blood cells (hRBCs) were collected in the presence of an anti-coagulant from a healthy volunteer. After washing the blood three times with PBS haemolytic activity of the peptides were determined as reported previously. Methodology of our experiment with human blood was in accordance with relevant guidelines and regulations of CSIR-central drug research institute ethics committee and was approved by it with approval No. CDRI/IEC/2014/A5. Further, informed consent was obtained from the healthy volunteer before collection of blood as per the guideline of our Institutional ethics committee.

[12] = system: E. coli 0111:B4 LPS-administered mice; experiment: In vivo anti-LPS activity: survival of LPS-administered mice (septic shock); details: BALB/c mice, monitored 7 days
Description: Septic shock in BALB/c mice was induced by intraperitoneal (i.p.) injection of E. coli LPS (12 mg/kg) followed by i.p. injection of T15,21K-piscidin-1 (0.5 mg/Kg) or T15,21dK-piscidin-1 (1 mg/Kg) or polymyxin B (1 mg/Kg) ~5 min later. Mice treated with only saline was taken as control. Survival of the animals (n = 5) was monitored for 7 days (***p < 0.0001, log-rank test).
Polymyxin B was taken as the positive control and the experiments were performed as reported earlier[14][30][31].
In vivo studies, treat ment of Mice
Female BALB/c mice (National laboratory animal centre, central drug research institute,
Lucknow) we re given a s tandard laborato r y diet an d water ad libitum and housed under controlled
environmental conditions. The mice wer e approx imatel y 25 g each at the st art of experiments. All
the mice were divided into experimental groups for the administration of LPS and peptides. Mice
were treated with 12 m g/ kg E. coli 0111: B4 LPS i n presen ce and in absen ce of peptide in different
experimental groups. The mice treated with saline onl y, in absence of LP S were considered as
experimental controls. To study the efficacy of a peptide in neutralizing LPS-induced pro-
inflammatory responses in mice ~5 min post LPS treatment, the respective peptide was
administered i.p. at a site other than the one, used for LPS injection. […] Survival of mice was
monitored for 7 da ys. Survival of mice was also mo nitored following th e treatment of onl y p eptides
for investigating their toxic effects.

SMILES: CC[C@H](C)[C@H](NC(=O)CNC(=O)[C@H](CCCNC(=N)N)NC(=O)[C@H](Cc1ccccc1)NC(=O)[C@@H](NC(=O)[C@H](Cc1c[nH]cn1)NC(=O)[C@H](Cc1c[nH]cn1)NC(=O)[C@H](Cc1ccccc1)NC(=O)[C@@H](N)Cc1ccccc1)[C@@H](C)CC)C(=O)N[C@H](C(=O)N[C@@H](Cc1c[nH]cn1)C(=O)N[C@H](C(=O)NCC(=O)N[C@@H](CCCCN)C(=O)N[C@H](CCCCN)C(=O)N[C@H](C(=O)N[C@@H](Cc1c[nH]cn1)C(=O)N[C@@H](CCCNC(=N)N)C(=O)N[C@@H](CC(C)C)C(=O)N[C@H](C(=O)N[C@H](CCCCN)C(=O)NCC(N)=O)C(C)C)[C@@H](C)CC)C(C)C)C(C)C [T15,21dK Piscidin-1] (HELM PEPTIDE1{F.F.H.H.I.F.R.G.I.V.H.V.G.K.[dK].I.H.R.L.V.[dK].G.[am]}$$$$V2.0)
- Minimum inhibitory conc. (MIC) against bacteria 2 [1]: 5.0 ± 0.7 µM (≈ 13.1 µg/mL)
- Minimum inhibitory conc. (MIC) against bacteria 10 [2]: 5.0 ± 0.7 µM (≈ 13.1 µg/mL)
- Minimum inhibitory conc. (MIC) against bacteria 8 [3]: 9.0 ± 1.3 µM (≈ 23.6 µg/mL)
- Minimum inhibitory conc. (MIC) against bacteria 9 (B. subtilis (ATCC 6633)): 9.0 ± 1.3 µM (≈ 23.6 µg/mL)
- Minimum inhibitory conc. (MIC) against bacteria 1 [4]: 5.0 ± 0.7 µM (≈ 13.1 µg/mL)
- Minimum inhibitory conc. (MIC) against bacteria 6 [5]: 10.0 ± 1.4 µM (≈ 26.3 µg/mL)
- Minimum inhibitory conc. (MIC) against bacteria 5 [6]: 5.0 ± 0.7 µM (≈ 13.1 µg/mL)
- Minimum inhibitory conc. (MIC) against bacteria 7 [7]: 5.0 ± 0.7 µM (≈ 13.1 µg/mL)
- Minimum inhibitory conc. (MIC) against bacteria 4 [8]: 5.0 ± 0.7 µM (≈ 13.1 µg/mL)
- Minimum inhibitory conc. (MIC) against bacteria 3 [9]: 10.0 ± 1.4 µM (≈ 26.3 µg/mL)
- survival of control mice treated only with peptide [10]: 100%
- MIC (E. coli (ATCC 25922)): 5.0 µM (≈ 13.1 µg/mL)
- HC50, peptide concentration leading to 50% lysis of human RBC [11]: 500 µM
- survival of LPS-administered mice ([12]; peptide 1.0 mg/Kg i.p. ~5 min after LPS 12.0 mg/Kg i.p., n = 5): 100%
- mortality rate of LPS-administered mice ([12]; single dose 1.0 mg/kg i.p. after LPS 12 mg/kg): zero
